# Measurements as given in patent US11629192B2, “Methods and pharmaceutical compositions for the treatment of diseases mediated by the NRP-1/OBR complex signaling pathway” (INSERM (Institut National de la Sante et de la Recherche …, priority 2014, dated 2023).
# Biological target: T1, OBR (Homo sapiens, UniProt P48357)
# T1 sequence (P48357 22-1165): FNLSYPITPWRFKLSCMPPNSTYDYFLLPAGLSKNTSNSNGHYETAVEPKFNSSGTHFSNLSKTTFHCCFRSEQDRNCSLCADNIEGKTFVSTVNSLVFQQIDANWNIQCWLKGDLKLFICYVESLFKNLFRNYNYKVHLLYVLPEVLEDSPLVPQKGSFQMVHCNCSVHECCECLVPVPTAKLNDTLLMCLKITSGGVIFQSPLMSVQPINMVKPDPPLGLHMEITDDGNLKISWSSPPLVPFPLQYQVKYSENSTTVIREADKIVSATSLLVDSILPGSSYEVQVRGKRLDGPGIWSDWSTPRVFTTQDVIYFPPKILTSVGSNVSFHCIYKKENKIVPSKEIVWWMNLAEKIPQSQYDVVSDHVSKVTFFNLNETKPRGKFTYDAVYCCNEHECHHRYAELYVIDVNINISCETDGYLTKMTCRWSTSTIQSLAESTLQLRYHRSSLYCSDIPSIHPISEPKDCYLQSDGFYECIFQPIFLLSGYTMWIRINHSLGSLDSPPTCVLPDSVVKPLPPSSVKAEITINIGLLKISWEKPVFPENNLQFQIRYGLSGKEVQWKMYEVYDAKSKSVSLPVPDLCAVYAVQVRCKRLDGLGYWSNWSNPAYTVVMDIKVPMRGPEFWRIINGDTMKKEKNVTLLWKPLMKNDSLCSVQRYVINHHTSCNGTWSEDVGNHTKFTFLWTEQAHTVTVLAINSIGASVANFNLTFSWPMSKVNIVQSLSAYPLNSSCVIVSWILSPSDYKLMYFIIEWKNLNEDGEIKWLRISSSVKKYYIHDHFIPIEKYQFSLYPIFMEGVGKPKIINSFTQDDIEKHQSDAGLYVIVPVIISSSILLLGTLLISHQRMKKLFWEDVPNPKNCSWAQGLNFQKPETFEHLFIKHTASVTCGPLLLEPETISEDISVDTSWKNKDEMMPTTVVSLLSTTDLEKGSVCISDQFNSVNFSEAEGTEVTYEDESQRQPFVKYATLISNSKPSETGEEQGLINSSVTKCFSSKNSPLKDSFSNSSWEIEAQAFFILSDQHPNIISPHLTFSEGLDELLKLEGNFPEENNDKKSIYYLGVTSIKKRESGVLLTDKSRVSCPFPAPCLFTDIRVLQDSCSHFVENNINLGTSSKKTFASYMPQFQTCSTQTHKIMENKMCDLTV
# Assay: Bio-Layer Interferometry (BLI) binding to OBR
# Excerpt: FIG. 5. NRP-1, OBR and leptin interactions confirmation using a Bio-Layer Interferometry (BLI) technology (fortebio.com/bli-technology.html): A-Leptin (OB) interaction to OBR is used as a positive control. Human neuropilin-1 (hNRP-1) interact with human OBR with a high affinity and specifically with human leptin (hOB) but not with murine leptin (mOB). VEGF165 binding to hNRP-1 is used as a positive control. B-Leptin and Avastin association increases MDA-MB231 cells transmigration through […] pore Insert. Avastin treatment may prevent a negative feedback control by VEGF of the pro-angiogenic signaling pathway of Leptin. VEGF binds to OBR which confirms our hypothesis that should be more investigated.
substance,measurement,value
VEGF,binding to OBR,binds
